Results taken from patent publication US20230141863A1, “Small Molecule Inhibitors Targeting the Sodium Channel Tamoxifen Receptor and Uses Thereof” (Northwestern University, priority 2021, published 2023).

Assays:
[1] = tested on: T1, endogenous voltage-gated sodium channels expressed in murine DRG neurons; experiment: Whole cell voltage clamp of endogenous sodium currents (INa) in cultured DRG sensory neurons; format: cell-based, mouse; settings: for voltage dependence of INa inhibition (in words): −60 mV versus −100 mV holding potential
T1 construct: other: waiting for 5 minutes after removal; ND-Tam potency against DRG INa (IC50); other: DRG neurons, −60 mV holding potential; other: 3 μM ND-Tam treatment; other: DR
Protocol: FIG. 1. Tamoxifen metabolites inhibit endogenous voltage-gated sodium channels expressed in murine DRG neurons. A) DIC and fluorescence images of voltage clamped DRG neuron isolated and cultured from an Nav1.8-tomato mouse. Continuity with the patched neuron is indicted by the GFP (Alexa Fluor 488 dye 1 nM) loaded into the glass patch electrode. B) Top, exemplar sodium currents (INa) recorded in control saline and two concentrations of N-desmethyl tamoxifen (ND-Tam) from a voltage-clamped DRG neuron. INa was activated by 0.2 Hz train of 50 ms depolarizations to −10 mV from −100 mV holding potential. Bottom, time course of peak INa inhibition during control conditions and after 5 minutes of extracellular ND-Tam treatment. C) Resulting drug concentration-INa inhibition relationship for ND-Tam fit to the Hill equation. Open symbols represent responses from individual cells and filled symbols represent average response per concentration. Error is equal to S.E.M. (n=11) D) A comparison of the percent INa recovery after 3-10 μM ND-Tam or 1 mM carbamazepine (CBZ) inhibition. INa recovery was assessed after 5 minutes in control saline post drug exposure. Fewer INa recovered from ND-Tam exposure compared to CBZ exposure, 14.3±5.4% and 47.2±9.6%, respectively, and was statistically significant (P=0.03). Error is equal to S.E.M. and the number of cells tested per treatment group is indicated within the parentheses.
Previously, a unique receptor site for tamoxifen analogues within the prokaryotic sodium channel isolated form Magnetococcus marinus (NavMs)^36 (Sula et al) was crystallographically identified. Because drug occupancy of this receptor caused long lasting inhibition of the NavMs INa, the inventors wondered if these properties would translate into effects against sensory neuron Na s which transmit pain signals. Accordingly, =the potency of ND-Tam and 4OH-Tam was tested against endogenously expressed Na s in cultured DRG sensory neurons isolated from Nav1.8-tdTomato mice by conducting whole cell voltage clamp recordings (FIG. 1A, B). Sodium currents were activated by a 0.2 Hz train of −10 mV depolarizations from a holding potential of −100 mV. The externally applied drug effect was determined after three to five minutes of application of each drug concentration (FIG. 1B). […] As discussed in the introduction, total DRG INa is conducted by the Nav1.1, Nav1.6, Nav1.7, Nav1.8 and Nav1.9 subtypes. To determine if there is any specificity in the potency of tamoxifen analogues against Nav subtypes, human orthologues were heterologously expressed in cell lines (HEK and CHO co-expressing hb1 subunits), and conducted voltage-clamp experiments, as previously performed in the DRG neurons.
Dorsal root ganglia were isolated using a modified version of the previously described protocol (PMID: 26864470). All animal procedures were approved by the Institutional Animal Care and Use Committee at the Feinberg Medical School, Northwestern University. The spinal columns of 4-6-week-old […] or Nav1.8-Tomato mice (Nav1.8-Td) were removed and DRG neurons from all spinal levels were isolated for primary culture (PMID: 33827672, PMID: 31351964). The collected DRGs, containing both neuronal and non-neuronal cells, were acutely dissociated in DMEM with collagenase IV (2 mg/mL) for 30 minutes, followed by papain (25 U/mL) for 30 minutes. The cells were then triturated, filtered through a 40 μm cell strainer to remove non-dissociated cells, and washed with DMEM. The DRGs were resuspended in 70 μL of pre-warmed growth medium (DMEM F12+Glutamax supplemented with 0.5% FBS, 0.5% penicillin/streptomycin, 1% N-2 supplement, and β-NGF ([…]) added on the day of use) and plated on poly-l-lysine (10 mg/mL) and laminin (25 μg/mL) prepared coverslips. The DRGs were incubated at 37° C. for 2-4 hours before more growth medium was added to the wells. […]

human Nav1.7 = molecular target: T2, human Nav1.7 (Homo sapiens, UniProt Q15858); experiment: Voltage clamp of heterologously expressed Nav1.7; format: cell-based; settings: Hill fit, printed for ND-Tam and 4OH-Tam together
T2 construct: expressed in transfected cells; host or cells: HEK cells, transient transfection with lipofectamine
Protocol: While no clear drug-receptor interactions were determined within Siteout, the S6 E220 side chains formed hydrogen bond interactions with the ether and amine moieties of the ND-Tam molecules found at Sitein. […] After structural alignment of the crystalized NavMs-Tam complex with the cryo EM Nav1.7+b1+b2 channel coordinates, the S6 side chain hydroxyl in DII (S969) and the carboxyl side chains in DIII (E1458) and DIV (D1761) observed in the human channel were nearly superimposable with E220 of the prokaryotic Nav subunits. In addition, the distances from the drug ether and amines were within acceptable distances (2.8-3.1 Å) for hydrogen bond formation for all three site chains (FIG. 2B). […]
Plasmids encoding the human version of channels Nav1.1, 1.6, and 1.7 were co-transfected with TRES GFP into HEK cell lines for whole-cell voltage clamp studies (American Type Culture Collection). […] Plasma membrane currents were recorded using borosilicate glass electrodes polished to resistances of […]. Sodium currents conducted by heterologously expressed Navs were recorded using the following solutions (in mM). […] Endogenous DRG sodium currents were recorded using an intracellular solution consisting of 70 CsCl, 70 CsF, 2 EGTA, 5 HEPES, and 5 NaCl; the pH was adjusted to 7.4 with CsOH. […]

[2] = tested on: mice with knee hyperalgesia post DMM surgery; settings: 20 mg/kg, ~0.85M, PMID: 29563338; cited from earlier work
[3] = tested on: mice with knee hyperalgesia post DMM surgery; experiment: In vivo osteoarthritis pain model (DMM), knee hyperalgesia after intra-articular injection; set-up: species or system mouse; settings: 50 μM intra-articular, vehicle 0.1% DMSO; for knee hyperalgesia versus vehicle, direct comparison study (in words): 30 minutes after injection; for knee withdrawal threshold versus vehicle control (in words): through 3 hours after injection

T2 sequence (Q15858 whole entry): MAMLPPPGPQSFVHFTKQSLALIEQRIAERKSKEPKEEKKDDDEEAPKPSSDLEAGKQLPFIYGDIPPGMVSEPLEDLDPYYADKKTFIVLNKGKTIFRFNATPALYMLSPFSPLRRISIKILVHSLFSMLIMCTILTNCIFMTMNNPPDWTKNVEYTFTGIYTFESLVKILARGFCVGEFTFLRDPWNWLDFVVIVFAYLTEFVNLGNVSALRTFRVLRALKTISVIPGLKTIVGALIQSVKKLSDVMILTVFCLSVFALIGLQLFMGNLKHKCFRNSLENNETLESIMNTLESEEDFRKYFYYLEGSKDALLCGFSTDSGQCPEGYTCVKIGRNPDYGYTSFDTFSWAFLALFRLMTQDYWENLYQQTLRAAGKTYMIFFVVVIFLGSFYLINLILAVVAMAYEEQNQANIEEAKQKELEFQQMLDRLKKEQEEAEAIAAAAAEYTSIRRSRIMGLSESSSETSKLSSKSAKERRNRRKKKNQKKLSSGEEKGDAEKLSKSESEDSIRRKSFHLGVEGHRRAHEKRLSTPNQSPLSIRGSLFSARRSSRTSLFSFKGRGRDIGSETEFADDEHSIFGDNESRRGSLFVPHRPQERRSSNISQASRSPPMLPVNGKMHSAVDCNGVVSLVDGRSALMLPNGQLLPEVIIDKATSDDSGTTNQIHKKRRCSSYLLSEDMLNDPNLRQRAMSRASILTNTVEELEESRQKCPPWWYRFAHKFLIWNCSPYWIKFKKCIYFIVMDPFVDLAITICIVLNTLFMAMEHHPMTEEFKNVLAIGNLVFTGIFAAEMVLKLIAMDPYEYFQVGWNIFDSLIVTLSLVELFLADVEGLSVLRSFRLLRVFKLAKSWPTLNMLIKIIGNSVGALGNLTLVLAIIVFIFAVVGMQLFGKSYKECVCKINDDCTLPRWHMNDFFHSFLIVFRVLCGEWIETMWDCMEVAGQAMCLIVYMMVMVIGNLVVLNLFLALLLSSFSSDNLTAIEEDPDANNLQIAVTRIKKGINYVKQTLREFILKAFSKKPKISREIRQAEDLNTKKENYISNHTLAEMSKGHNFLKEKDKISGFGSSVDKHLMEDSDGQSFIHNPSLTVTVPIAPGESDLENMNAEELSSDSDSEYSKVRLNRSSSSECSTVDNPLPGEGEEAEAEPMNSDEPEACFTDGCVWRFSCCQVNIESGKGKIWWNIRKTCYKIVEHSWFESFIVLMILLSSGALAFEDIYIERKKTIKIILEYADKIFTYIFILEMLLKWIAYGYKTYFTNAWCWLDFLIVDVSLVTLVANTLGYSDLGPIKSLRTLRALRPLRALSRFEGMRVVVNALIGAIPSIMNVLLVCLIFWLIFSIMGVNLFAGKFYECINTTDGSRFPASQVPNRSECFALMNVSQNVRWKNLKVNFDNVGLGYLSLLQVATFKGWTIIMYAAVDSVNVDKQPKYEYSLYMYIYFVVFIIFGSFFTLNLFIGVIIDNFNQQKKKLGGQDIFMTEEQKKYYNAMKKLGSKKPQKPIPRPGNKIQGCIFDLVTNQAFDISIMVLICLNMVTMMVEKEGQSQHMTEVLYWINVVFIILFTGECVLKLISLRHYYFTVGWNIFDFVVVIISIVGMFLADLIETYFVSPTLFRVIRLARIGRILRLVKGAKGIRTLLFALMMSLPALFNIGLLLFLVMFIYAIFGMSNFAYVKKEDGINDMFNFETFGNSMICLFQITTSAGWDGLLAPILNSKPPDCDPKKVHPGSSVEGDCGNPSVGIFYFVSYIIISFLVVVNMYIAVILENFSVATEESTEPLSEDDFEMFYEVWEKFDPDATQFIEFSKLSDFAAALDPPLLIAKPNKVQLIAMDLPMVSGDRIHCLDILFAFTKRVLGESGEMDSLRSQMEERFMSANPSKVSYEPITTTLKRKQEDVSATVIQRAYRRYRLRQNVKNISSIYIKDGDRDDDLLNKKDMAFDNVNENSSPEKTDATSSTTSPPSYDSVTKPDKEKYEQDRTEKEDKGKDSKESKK

Compound	IC50 ([1]; DRG neurons, −100 mV holding potential, 0.2 Hz train of −10 mV depolarizations, read-out: half maximal potency of INa inhibition (IC50))	inhibition of sodium currents recorded from DRG neurons (in words) ([1]; tamoxifen analogs and fragments, FIG. 7B)	slope of concentration-dependence (human Nav1.7)	voltage dependence of INa inhibition (in words) [1]	knee hyperalgesia after local injection of a relatively high dose (in words) [2]	knee hyperalgesia versus vehicle, direct comparison study (in words) [3]	knee withdrawal threshold versus vehicle control (in words) [3]
CC/C(=C(\c1ccc(O)cc1)c1ccc(OCCN(C)C)cc1)c1ccccc1 [4OH-Tam, 4-[(Z)-1-[4-[2-(dimethylamino)ethoxy]phenyl]-2-phenylbut-1-enyl]phenol]	3.3 µM	inhibited sodium currents	2.1				
CCN(CC)CC(=O)Nc1c(C)cccc1C [lidocaine, reference compound]				most potent when membranes were held at −60 mV	able to acutely reverse knee hyperalgesia	effectively inhibited knee hyperalgesia	remained elevated compared to vehicle control through 3 hours after injection
C=C(C)[C@@H]1CCC(C)=C[C@H]1c1c(O)cc(CCCCC)cc1O [CBD, cannabidiol, reference compound]				followed this trend		effectively inhibited knee hyperalgesia	remained elevated compared to vehicle control through 3 hours after injection
NC(=O)N1c2ccccc2C=Cc2ccccc21 [CBZ, carbamazepine, reference compound]				most potent when membranes were held at −60 mV			
